Measured values reported in US20260262643A1, “HERBICIDAL BENZOXAZINES” (FMC CORPORATION, priority 2022, published 2026).

How the values were obtained:
[1] = test system: barnyardgrass; assay: Test C preemergence; type: in vivo, Echinochloa crusgalli; conditions: 0 to 100 scale (0 no effect, 100 complete control); for Plant response rating, Barnyardgrass: Preemergence, 500 g ai/ha, visual rating after 10 days; for Barnyardgrass plant response rating: Test C, preemergence, 125 g ai/ha
Outline: (§1)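 Seeds sown in loam soil–sand blend received a directed preemergence soil spray of test chemical in non-phytotoxic solvent with surfactant; postemergence plants (2–10 cm, one- to two-leaf stage) were sprayed with the same formulation. Greenhouse-held 10 days, then visually rated for injury versus untreated controls, 0 (no effect) to 100 (complete control).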

[2] = test system: ragweed; assay: Test C postemergence; type: in vivo, Ambrosia artemisiifolia; conditions: 10 days
Outline: as §1

[3] = test system: ducksalad; assay: Test D flooded paddy test; type: in vivo, Heteranthera limosa; conditions: 250 g ai/ha, applied to paddy water, visual rating after 13 to 14 days, scale 0 to 100 (0 no effect, 100 complete control)
Experimental: (§2) Plant species in the flooded paddy test selected from barnyardgrass (Echinochloa crus-galli), ducksalad (Heteranthera limosa), rice (Oryza sativa), and sedge, umbrella (small-flower umbrella sedge, Cyperus difformis) were grown to the 2-leaf stage for testing. At time of treatment, test pots were flooded to 3 cm above the soil surface, treated by application of test compounds directly to the paddy water, and then maintained at that water depth for the duration of the test. Treated plants and controls were maintained in a greenhouse for 13 to 14 days, after which time all species were compared to controls and visually evaluated. Plant response ratings, summarized in Table D, are based on a scale of 0 to 100 where 0 is no effect and 100 is complete control. A dash (-) response means no test result.

[4] = test system: pigweed, palmer; assay: Test C postemergence; type: in vivo, Amaranthus palmeri; conditions: 10 days
Outline: as §1

[5] = test system: wheat; assay: Test C preemergence; type: in vivo, Triticum aestivum; conditions: 0 to 100 scale (0 no effect, 100 complete control); for Plant response rating, Wheat: Preemergence, 500 g ai/ha, visual rating after 10 days; for Wheat plant response rating: Test C, preemergence, 125 g ai/ha
Outline: as §1

[6] = test system: blackgrass; assay: Test C postemergence; type: in vivo, Alopecurus myosuroides; conditions: 10 days
Outline: as §1

[7] = test system: kochia; assay: Test C preemergence; type: in vivo, Bassia scoparia; conditions: 0 to 100 scale (0 no effect, 100 complete control); for Plant response rating, Kochia: Preemergence, 500 g ai/ha, visual rating after 10 days; for Kochia plant response rating: Test C, preemergence, 125 g ai/ha
Outline: as §1

[8] = test system: green foxtail; assay: Test C preemergence; type: in vivo, Setaria viridis; conditions: 0 to 100 scale (0 no effect, 100 complete control); for Plant response rating, Foxtail, Green: Preemergence, 500 g ai/ha, visual rating after 10 days; for Foxtail, Green plant response rating: Test C, preemergence, 125 g ai/ha
Outline: as §1

[9] = test system: ragweed; assay: Test C preemergence; type: in vivo, Ambrosia artemisiifolia; conditions: 0 to 100 scale (0 no effect, 100 complete control); for Plant response rating, Ragweed: Preemergence, 500 g ai/ha, visual rating after 10 days; for Ragweed plant response rating: Test C, preemergence, 125 g ai/ha
Outline: as §1

[10] = test system: kochia; assay: Test C postemergence; type: in vivo, Bassia scoparia; conditions: 10 days
Outline: as §1

[11] = test system: ryegrass, Italian; assay: Test C preemergence; type: in vivo, Lolium multiflorum; conditions: 0 to 100 scale (0 no effect, 100 complete control); for Plant response rating, Ryegrass, Italian: Preemergence, 500 g ai/ha, visual rating after 10 days; for Ryegrass, Italian plant response rating: Test C, preemergence, 125 g ai/ha
Outline: as §1

[12] = test system: sedge, umbrella; assay: Test D flooded paddy test; type: in vivo, Cyperus difformis; conditions: 250 g ai/ha, applied to paddy water, visual rating after 13 to 14 days, scale 0 to 100 (0 no effect, 100 complete control)
Experimental: as §2

[13] = test system: blackgrass; assay: Test C preemergence; type: in vivo, Alopecurus myosuroides; conditions: 0 to 100 scale (0 no effect, 100 complete control); for Plant response rating, Blackgrass: Preemergence, 500 g ai/ha, visual rating after 10 days; for Blackgrass plant response rating: Test C, preemergence, 125 g ai/ha
Outline: as §1

[14] = test system: wheat; assay: Test C postemergence; type: in vivo, Triticum aestivum; conditions: 10 days
Outline: as §1

[15] = test system: barnyardgrass; assay: Test C postemergence; type: in vivo, Echinochloa crusgalli; conditions: 10 days
Outline: as §1

[16] = test system: pigweed, palmer; assay: Test C preemergence; type: in vivo, Amaranthus palmeri; conditions: 0 to 100 scale (0 no effect, 100 complete control); for Plant response rating, Pigweed, Palmer: Preemergence, 500 g ai/ha, visual rating after 10 days; for Pigweed, Palmer plant response rating: Test C, preemergence, 125 g ai/ha
Outline: as §1

[17] = test system: corn; assay: Test C postemergence; type: in vivo, Zea mays; conditions: 10 days
Outline: as §1

[18] = test system: oat, wild; assay: Test C preemergence; type: in vivo, Avena fatua; conditions: 0 to 100 scale (0 no effect, 100 complete control); for Plant response rating, Oat, Wild: Preemergence, 500 g ai/ha, visual rating after 10 days; for Oat, Wild plant response rating: Test C, preemergence, 125 g ai/ha
Outline: as §1

[19] = test system: ryegrass, Italian; assay: Test C postemergence; type: in vivo, Lolium multiflorum; conditions: 10 days
Outline: as §1

[20] = test system: rice; assay: Test D flooded paddy test; type: in vivo, Oryza sativa; conditions: 250 g ai/ha, applied to paddy water, visual rating after 13 to 14 days, scale 0 to 100 (0 no effect, 100 complete control)
Experimental: as §2

[21] = test system: soybean; assay: Test C postemergence; type: in vivo, Glycine max; conditions: 10 days
Outline: as §1

[22] = test system: oat, wild; assay: Test C postemergence; type: in vivo, Avena fatua; conditions: 10 days
Outline: as §1

[23] = test system: soybean; assay: Test C preemergence; type: in vivo, Glycine max; conditions: 0 to 100 scale (0 no effect, 100 complete control); for Plant response rating, Soybean: Preemergence, 500 g ai/ha, visual rating after 10 days; for Soybean plant response rating: Test C, preemergence, 125 g ai/ha
Outline: as §1

[24] = test system: horseweed; assay: Test C postemergence; type: in vivo, Erigeron canadensis; conditions: 10 days
Outline: as §1

[25] = test system: barnyardgrass; assay: Test D flooded paddy test; type: in vivo, Echinochloa crus-galli; conditions: 250 g ai/ha, applied to paddy water, visual rating after 13 to 14 days, scale 0 to 100 (0 no effect, 100 complete control)
Experimental: as §2

[26] = test system: galium; assay: Test C postemergence; type: in vivo, Galium aparine; conditions: 10 days
Outline: as §1

[27] = test system: corn; assay: Test C preemergence; type: in vivo, Zea mays; conditions: 0 to 100 scale (0 no effect, 100 complete control); for Plant response rating, Corn: Preemergence, 500 g ai/ha, visual rating after 10 days; for Corn plant response rating: Test C, preemergence, 125 g ai/ha
Outline: as §1

[28] = 125 g ai/ha, postemergence, 0 to 100 scale, 0 no effect, 100 complete control
[29] = Postemergence, 500 g ai/ha, visual 0 to 100 scale (0 no effect, 100 complete control)

COC[C@H]1CN(C(=O)c2cc(-n3cnc(C4CCC4)n3)ccc2OC)c2cccc(Cl)c2O1 [Compound 236]
Plant response rating, Barnyardgrass [1]: 80 | Barnyardgrass plant response rating [1]: 20 | Plant response rating, Ragweed [2, 28]: 80 | Plant response rating, Ragweed [2, 29]: 90 | Plant response rating, Ducksalad (Flood) [3]: 75 | Plant response rating, Pigweed, Palmer [4, 28]: 90 | Plant response rating, Pigweed, Palmer [4, 29]: 90 | Plant response rating, Wheat [5]: 10 | Wheat plant response rating [5]: 0 | Plant response rating, Blackgrass [6, 28]: 20 | Plant response rating, Blackgrass [6, 29]: 90 | Plant response rating, Kochia [7]: 90 | Kochia plant response rating [7]: 40 | Plant response rating, Foxtail, Green [8]: 100 | Foxtail, Green plant response rating [8]: 90 | Plant response rating, Ragweed [9]: 80 | Ragweed plant response rating [9]: 20 | Plant response rating, Kochia [10, 28]: 90 | Plant response rating, Kochia [10, 29]: 90 | Plant response rating, Ryegrass, Italian [11]: 50 | Ryegrass, Italian plant response rating [11]: 50 | Plant response rating, Sedge, Umbrella (Flood) [12]: 95 | Plant response rating, Blackgrass [13]: 10 | Blackgrass plant response rating [13]: 0 | Plant response rating, Wheat [14, 28]: 20 | Plant response rating, Wheat [14, 29]: 30 | Plant response rating, Barnyardgrass [15, 28]: 40 | Plant response rating, Barnyardgrass [15, 29]: 90 | Plant response rating, Pigweed, Palmer [16]: 100 | Pigweed, Palmer plant response rating [16]: 80 | Plant response rating, Corn [17, 28]: 30 | Plant response rating, Corn [17, 29]: 80 | Plant response rating, Oat, Wild [18]: 30 | Oat, Wild plant response rating [18]: 10 | Plant response rating, Ryegrass, Italian [19, 28]: 60 | Plant response rating, Ryegrass, Italian [19, 29]: 90 | Plant response rating, Rice (Flood) [20]: 0 | Plant response rating, Soybean [21, 28]: 100 | Plant response rating, Soybean [21, 29]: 100 | Plant response rating, Oat, Wild [22, 28]: 10 | Plant response rating, Oat, Wild [22, 29]: 40 | Plant response rating, Soybean [23]: 70 | Soybean plant response rating [23]: 40 | Plant response rating, Horseweed [24, 28]: 70 | Plant response rating, Horseweed [24, 29]: 70 | Plant response rating, Barnyardgrass (Flood) [25]: 0 | Plant response rating, Galium [26, 28]: 100 | Plant response rating, Galium [26, 29]: 100 | Plant response rating, Corn [27]: 0 | Corn plant response rating [27]: 0

Cc1ccc(-n2cnc(C3(C)CC3)n2)cc1C(=O)N1C[C@H](C)Oc2c(Cl)cccc21 [Compound 252]
Plant response rating, Barnyardgrass [1]: 90 | Barnyardgrass plant response rating [1]: 80 | Plant response rating, Ragweed [2, 28]: 70 | Plant response rating, Ragweed [2, 29]: 80 | Plant response rating, Ducksalad (Flood) [3]: 15 | Plant response rating, Pigweed, Palmer [4, 28]: 90 | Plant response rating, Pigweed, Palmer [4, 29]: 100 | Plant response rating, Wheat [5]: 10 | Wheat plant response rating [5]: 0 | Plant response rating, Blackgrass [6, 28]: 80 | Plant response rating, Blackgrass [6, 29]: 80 | Plant response rating, Kochia [7]: 100 | Kochia plant response rating [7]: 100 | Plant response rating, Foxtail, Green [8]: 100 | Foxtail, Green plant response rating [8]: 100 | Plant response rating, Ragweed [9]: 30 | Ragweed plant response rating [9]: 0 | Plant response rating, Kochia [10, 28]: 90 | Plant response rating, Kochia [10, 29]: 100 | Plant response rating, Ryegrass, Italian [11]: 80 | Ryegrass, Italian plant response rating [11]: 60 | Plant response rating, Sedge, Umbrella (Flood) [12]: 15 | Plant response rating, Blackgrass [13]: 20 | Blackgrass plant response rating [13]: 0 | Plant response rating, Wheat [14, 28]: 20 | Plant response rating, Wheat [14, 29]: 30 | Plant response rating, Barnyardgrass [15, 28]: 60 | Plant response rating, Barnyardgrass [15, 29]: 80 | Plant response rating, Pigweed, Palmer [16]: 100 | Pigweed, Palmer plant response rating [16]: 100 | Plant response rating, Corn [17, 28]: 60 | Plant response rating, Corn [17, 29]: 80 | Plant response rating, Oat, Wild [18]: 70 | Oat, Wild plant response rating [18]: 20 | Plant response rating, Ryegrass, Italian [19, 28]: 80 | Plant response rating, Ryegrass, Italian [19, 29]: 80 | Plant response rating, Rice (Flood) [20]: 0 | Plant response rating, Soybean [21, 28]: 100 | Plant response rating, Soybean [21, 29]: 100 | Plant response rating, Oat, Wild [22, 28]: 10 | Plant response rating, Oat, Wild [22, 29]: 10 | Plant response rating, Soybean [23]: 80 | Soybean plant response rating [23]: 20 | Plant response rating, Horseweed [24, 28]: 20 | Plant response rating, Horseweed [24, 29]: 50 | Plant response rating, Barnyardgrass (Flood) [25]: 35 | Plant response rating, Galium [26, 28]: 100 | Plant response rating, Galium [26, 29]: 100 | Plant response rating, Corn [27]: 0 | Corn plant response rating [27]: 0
